Columns and labels:
[1] = Tmax in male Sprague-Dawley rat at 100 mg/kg, po qd treated for 13 weeks consecutively measured after recovery period on day 91 by UP/LC/MS/MS analysis; format: ADME, organism-based; details: in vivo, time 91 day
[2] = Cmax in Sprague-Dawley rat at 9 mg/kg, po measured for 24 hrs by UPLC/MS/MS analysis; format: ADME, organism-based; details: in vivo
[3] = AUC (0 to t) in male Sprague-Dawley rat at 30 mg/kg, po measured on day 1 by UP/LC/MS/MS analysis; format: ADME, organism-based; details: in vivo, time 1 day
[4] = Toxicity in female Sprague-Dawley rat assessed as reduction in body weight at 100 mg/kg, po qd treated for 4 days consecutively; format: organism-based; parameters: scale not given: the % may be the effect or the level left; details: in vivo, 96 h, time 4 day
[5] = Acute toxicity in Sprague-Dawley rat assessed as change in morphology of animal at 250 to 1000 mg/kg, po single administration measured for 14 days; format: organism-based; details: in vivo, 336 h, dose 250-1000 mg/kg, time 14 day
Rattus norvegicus [6] = assay: Effect on postural hypotension in Sprague-Dawley rat assessed as change in systolic blood pressure at 2.5 mg/kg, po treated for >30 mins followed by induction of postural hypotension measured immediately after postural change (reference value: 131 +/- 9 mmHg); format: functional; details: 0.5 h
[7] = AUC (0 to t) in male Sprague-Dawley rat at 30 mg/kg, po qd treated for 13 weeks consecutively measured after recovery period on day 91 by UP/LC/MS/MS analysis; format: ADME, organism-based; details: in vivo, time 91 day
Rattus norvegicus [8] = assay: Effect on postural hypotension in Sprague-Dawley rat assessed as change in systolic blood pressure at 5 mg/kg, po treated for >30 mins followed by induction of postural hypotension measured 20 secs after postural change (reference value: 129 +/- 11 mmHg); format: functional; details: time > 30.33 min, 0.5055 h
[9] = AUC (0 to t) in female Sprague-Dawley rat at 30 mg/kg, po measured on day 1 by UP/LC/MS/MS analysis; format: ADME, organism-based; details: in vivo, time 1 day
[10] = Metabolic stability in rat plasma assessed as enzymatic hydrolysis at 50 to 10000 ng/ml incubated upto 120 mins; format: ADME, cell-free; details: 2 h, dose 50-10000 ng/ml
[11] = Plasma protein binding in Beagle dog at 0.1 uM incubated for 30 mins; format: ADME, cell-free, Canis lupus familiaris; details: read-out: PPB (converted)
[12] = molecular target: 5-hydroxytryptamine receptor 2A (Homo sapiens, UniProt P28223); assay: Displacement of [3H]Ketanserin from recombinant human 5-HT2A receptor extracted from CHO cell membrane at 1 nM incubated for 60 mins by radioligand binding assay relative to control; format: cell membranes; details: filed as antagonist
[13] = Cmax in Sprague-Dawley rat at 3 mg/kg, po measured for 24 hrs by UPLC/MS/MS analysis; format: ADME, organism-based; details: in vivo
[14] = Metabolic stability in Beagle dog plasma assessed as enzymatic hydrolysis at 50 to 10000 ng/ml incubated upto 120 mins; format: ADME, cell-free, Canis lupus familiaris; details: 2 h, dose 50-10000 ng/ml
[15] = Metabolic stability in Beagle dog liver microsomes assessed as drug elimination at 10 umol/L incubated for 5 mins in presence of NADPH by LC-MS/MS analysis; format: ADME, Canis lupus familiaris, Microsome; details: 10 µM, dose 10 µmol/L
[16] = Plasma protein binding in Sprague-Dawley rat at 0.1 uM incubated for 30 mins; format: ADME, cell-free; details: read-out: PPB (converted)
[17] = Cmax in male Sprague-Dawley rat at 30 mg/kg, po qd treated for 13 weeks consecutively measured after recovery period on day 91 by UP/LC/MS/MS analysis; format: ADME, organism-based; details: in vivo, time 91 day
[18] = Tmax in male Sprague-Dawley rat at 100 mg/kg, po measured on day 1 by UP/LC/MS/MS analysis; format: ADME, organism-based; details: in vivo, time 1 day
Rattus norvegicus [19] = assay: Effect on postural hypotension in Sprague-Dawley rat assessed as change in systolic blood pressure at 2.5 mg/kg, po treated for >30 mins followed by induction of postural hypotension measured 40 secs after postural change (reference value: 128 +/- 11 mmHg); format: functional; details: time > 30.67 min, 0.5112 h
[20] = Tmax in male Sprague-Dawley rat at 10 mg/kg, po qd treated for 13 weeks consecutively measured after recovery period on day 91 by UP/LC/MS/MS analysis; format: ADME, organism-based; details: in vivo, time 91 day
[21] = Plasma protein binding in Beagle dog at 1 uM incubated for 30 mins; format: ADME, cell-free, Canis lupus familiaris; details: read-out: PPB (converted)
[22] = Toxicity in Sprague-Dawley rat assessed as body weight anomaly at 10 mg/kg, po qd treated for 13 weeks consecutively measured after 4 week recovery period; format: organism-based; details: in vivo, 2856 h, time 17 weeks
[23] = Half life in Sprague-Dawley rat at 1 mg/kg, po measured for 24 hrs by UPLC/MS/MS analysis; format: ADME, organism-based; details: in vivo
[24] = Toxicity in male Sprague-Dawley rat assessed as change in body weight at 30 mg/kg, po qd treated for 13 weeks consecutively measured post-cessation of treatment; format: organism-based; details: in vivo, 2184 h
[25] = Toxicity in Sprague-Dawley rat at 10 to 100 mg/kg, po qd treated for 13 weeks; format: organism-based; details: in vivo, dose 10-100 mg/kg
[26] = Oral bioavailability in Sprague-Dawley rat at 1 mg/kg measured for 24 hrs by UPLC/MS/MS analysis; format: ADME, organism-based; details: in vivo
[27] = Tmax in female Sprague-Dawley rat at 30 mg/kg, po qd treated for 13 weeks consecutively measured after recovery period on day 91 by UP/LC/MS/MS analysis; format: ADME, organism-based; details: in vivo, time 91 day
[28] = Cmax in Sprague-Dawley rat at 1 mg/kg, po measured for 24 hrs by UPLC/MS/MS analysis; format: ADME, organism-based; details: in vivo
[29] = AUC (0 to t) in male Sprague-Dawley rat at 100 mg/kg, po measured on day 1 by UP/LC/MS/MS analysis; format: ADME, organism-based; details: in vivo, time 1 day
[30] = Tmax in Sprague-Dawley rat at 1 mg/kg, iv measured for 24 hrs by UPLC/MS/MS analysis; format: ADME, organism-based; details: in vivo
[31] = AUC (0 to t) in Sprague-Dawley rat at 3 mg/kg, po measured for 24 hrs by UPLC/MS/MS analysis; format: ADME, organism-based; details: in vivo
[32] = Plasma protein binding in Sprague-Dawley rat at 10 uM incubated for 30 mins; format: ADME, cell-free; details: read-out: PPB (converted)
[33] = Metabolic stability in Beagle dog liver microsomes assessed as drug metabolism at 10 umol/L incubated upto 120 mins in presence of NADPH by LC-MS/MS analysis; format: ADME, Canis lupus familiaris, Microsome; details: 2 h, 10 µM, dose 10 µmol/L

5-hydroxytryptamine receptor 2A, sequence (P28223 whole entry): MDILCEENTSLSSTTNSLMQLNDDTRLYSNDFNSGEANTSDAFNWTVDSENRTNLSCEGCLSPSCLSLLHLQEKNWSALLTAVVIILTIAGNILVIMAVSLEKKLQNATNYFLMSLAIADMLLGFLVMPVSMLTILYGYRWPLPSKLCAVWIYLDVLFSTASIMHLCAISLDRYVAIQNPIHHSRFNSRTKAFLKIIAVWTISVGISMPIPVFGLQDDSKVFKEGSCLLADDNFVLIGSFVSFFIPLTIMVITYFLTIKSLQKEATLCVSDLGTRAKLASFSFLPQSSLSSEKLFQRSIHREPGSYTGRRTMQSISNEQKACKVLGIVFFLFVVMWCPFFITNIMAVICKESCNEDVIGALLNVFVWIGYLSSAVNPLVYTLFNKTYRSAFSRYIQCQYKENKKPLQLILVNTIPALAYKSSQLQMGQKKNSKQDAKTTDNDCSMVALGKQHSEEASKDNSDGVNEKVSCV

Cl.c1ccc2c(c1)nnn2CCCCN1CCN(c2nsc3ccccc23)CC1
Tmax [1]: 1.3 h | Cmax [2]: 186 ng/mL | AUC(0-t) at 24 h [3]: 318 ng·h/mL | Activity [4]: ~ 3.3% | Activity [5]: Non-Toxic | Activity (Rattus norvegicus [6]): 96 mmHg | AUC(0-t) at 2184 h [7]: 672 ng·h/mL | Activity (Rattus norvegicus [8]): 83 mmHg | AUC(0-t) at 24 h [9]: 1440 ng·h/mL | Stability [10]: Stable | fraction unbound at 0.5 h, 0.1 µM [11]: 0.012 | inhibition [12]: 43.7% | Cmax [13]: 85.7 ng/mL | Stability [14]: Stable | Drug excretion [15]: Active | fraction unbound at 0.5 h, 0.1 µM [16]: 0.022 | Cmax [17]: 238 ng/mL | Tmax [18]: 1.3 h | Activity (Rattus norvegicus [19]): 92 mmHg | Tmax [20]: 1.3 h | fraction unbound at 0.5 h, 1 µM [21]: 0.006 | Activity [22]: Non-Toxic | half-life [23]: 1.5 h | Activity [24]: Non-Toxic | NOAEL at 2184 h [25]: 100 mg/kg | bioavailability [26]: 11.7% | Tmax [27]: 1 h | Cmax [28]: 33.3 ng/mL | AUC(0-t) at 24 h [29]: 1460 ng·h/mL | Tmax [30]: 0.25 h | AUC(0-t) at 24 h [31]: 421 ng·h/mL | fraction unbound at 0.5 h, 10 µM [32]: 0.017 | Drug metabolism [33]: Metabolite_Detected

Reference: ChEMBL document CHEMBL5614376, “Discovery of MT-1207: A Novel, Potent Multitarget Inhibitor as a Promising Clinical Candidate for the Treatment of Hypertension” (J Med Chem, 2024)
